Source: patent US10493045B2, “Method for treating alcohol dependence or alcohol abuse” (priority 2016, dated 2019)
Several values for one entry are separate records, joined by “and”; a condition that tells them apart may be missing. Identical values can stand only once.

Legend:
[1] = system: BD-II patients with comorbid alcohol dependence; assay: 12-week open-label low-dose add-on memantine treatment: clinical severity (HDRS, YMRS) and alcohol use; format: in vivo, human
Source text: BD-II patients with comorbid alcohol dependence were recruited from outpatient and inpatient settings in Taiwan. All patients were initially evaluated by an attending psychiatrist and then given a structural interview by a clinical psychologist to determine according to the Diagnostic and Statistical Manual of Mental Disorders, Fourth Edition, Text Revision (DSM-IV-TR), and the Chinese version of the Modified Schedule of Affective Disorder and Schizophrenia-Life Time (SADS-L) was used, which had good inter-rater reliability. Patients suffering from major mental illnesses other than BD-II and alcohol dependence and patients who had taken memantine within 1 week before the study began were excluded.
(§1) Eligible patients were given low-dose (less than 5 mg/day) add-on memantine (5 mg/day) after an initial screening, with open-label valproic acid (VPA) treatment (500 or 1000 mg/day or […] in plasma) which had begun when they joined the study. The severity of mood symptoms was assessed by using the Hamilton Depression Rating Scale (HDRS) and the Young Mania Rating Scale (YMRS). Only patients with moderate mood symptoms (HDRS≥18 or YMRS≥14) were recruited. The exact amount of alcohol used by each patient was assessed by using the Chinese version of the Modified SADS-L. Symptom severity and alcohol use were assessed at baseline, and treatment responses were measured on day 7 of weeks 1, 2, 4, 8, and 12. Concomitant benzodiazepine medications (lorazepam<8 mg and chlordiazepoxide<240 mg) were used for nighttime sedation and withdrawal symptoms during the study. Up to 20 mg/day of fluoxetine was permitted for associated depressive symptoms, and 1-3 mg of risperidone was used for hypomanic symptoms.
(§2) The intent to-treat (ITT) analysis set included all patients who had taken at least one dose of the studied drug, and had undergone one baseline assessment and at least one post-baseline assessment. All outcome variables—HDRS, YMRS, cytokine levels, plasma BDNF levels, and metabolic parameters—in the ITT set were analyzed. Missing data were filled in by using the last observation carried forward (LOCF) method.
(§3) The overall within-group changes of each outcome over 12 weeks were analyzed by using generalized estimating equations (GEEs). The present invention ran 10 models and each outcome was deemed as a dependent variable. In each model, treatment duration, gender, and age were considered as independent variables. The covariance structure used was the autoregressive (AR [1]) model. The significance of change of each outcome over 12-week follow-up was represented by the variable “treatment duration.” Linear regression analysis was used to analyze correlations between changes in alcohol use and changes in cytokine and BDNF levels in 12 weeks. Changes in alcohol use were dependent variables, and changes in HDRS and YMRS scores, and in plasma cytokine and BDNF levels (controlled for gender, age, and baseline clinical severity) were independent variables. SPSS 22.0 for Windows was used for all statistical computations. Significance was set at p<0.05.

[2] = Plasma memantine concentration in treated patients; format: in vivo, human; conditions: patients given 5 mg/day of memantine
[3] = system: post-dependent (PD) rats; conditions: injection 25 mg/kg; cited from earlier work
[4] = system: morphine-induced conditioned-place-preference behavior; conditions: rats; low-dose 0.02 mg/kg; cited from earlier work
[5] = system: opioid-dependent patients undergoing methadone maintenance treatment; conditions: add-on memantine; cited from earlier work
[6] = system: alcohol use; conditions: up to 40 mg/day of memantine; cited from earlier work
[7] = biological target: NMDA receptors; conditions: read-out: 50% inhibition concentration [IC50], block of NMDA receptors; cited from earlier work
[8] = system: plasma TNF-α, CRP, TGF-β1, IL-8, IL-10, and BDNF; assay: Plasma cytokine and BDNF levels by ELISA during 12-week add-on memantine treatment; format: in vivo, human
Experimental: as §1
Ten milliliters of whole blood was withdrawn from the antecubital vein of each patient when clinical severity was assessed: at baseline, and on day 7 of weeks 1, 2, 4, 8, and 12. Plasma, which was isolated from the whole blood after it had been centrifuged at 3000 g for 15 min at 4° C., was immediately stored at −80° C. The enzyme-linked immunosorbent assay was used to quantify the cytokine levels by ELISA reader (SpectraMax® M2e, Molecular Devices, USA). Sample processing and data analysis were done according to the manufacturer's instructions. The immunological parameters—plasma TNF-α, CRP, TGF-β1, IL-8, IL-10, and BDNF—were analyzed.
as §2, §3

For `CC12CC3CC(C)(C1)CC(N)(C3)C2` [memantine], the “Patients who stopped drinking during the first week of memantine treatment” value ([1]; 15 patients of 45, first week) was 33.3%, the “Patients who reduced their alcohol use to 0 unit after 12 weeks” value ([1]; 22/26 patients, after 12 weeks) was 84.6% and the “HDRS, mean at endpoint” value ([1]; BD-II patients with comorbid alcohol dependence, add-on memantine less than 5 mg/day plus VPA, endpoint 12 weeks, n = 26, baseline mean 14.4 (n = 45)) was 9.4. The “Reduction of alcohol use after 12 weeks of treatment, all of the patients” value ([1]; after 12 weeks) was over 50%, the “YMRS, mean at endpoint” value ([1]; endpoint 12 weeks, n = 26, baseline mean 13.8 (n = 45)) was 9.4 and the “Alcohol use (unit), mean at endpoint” value ([1]; endpoint 12 weeks, n = 26, baseline mean 73.9 (n = 45)) was 11.8 unit. For the same compound, the Plasma memantine concentrations [2] was 10-50 ng/ml and 0.05-0.2 μM, the “Alcohol drinking during acute withdrawal” value [3] was “reduced” and the “Relapses of alcohol dependence after protracted abstinence” value [3] was “did not reduce”. For the same compound, the Morphine-induced conditioned-place-preference behavior [4] was “abolishes”, the “Plasma tumor necrosis factor-α (TNF-α) levels” value [5] was “significantly downregulates” and the Required methadone dose [5] was “reduces”. The “Transforming growth factor-β1 (TGF-β1) levels” value [5] was “upregulates”, the “Alcohol use as compared to placebo” value [6] was “not significantly reduced” and the IC50 [7] was 2000 to 3000 nM. For the same compound, the “IL-10, mean at endpoint” value ([8]; endpoint 12 weeks, n = 26, baseline mean 2.09) was 1.92, the “TNF-α, mean at endpoint” value ([8]; endpoint 12 weeks, n = 26, baseline mean 2.64) was 2.66 and the “IL-8, mean at endpoint” value ([8]; endpoint 12 weeks, n = 26, baseline mean 17.64) was 10.22. For the same compound, the “CRP, mean at endpoint” value ([8]; endpoint 12 weeks, n = 26, baseline mean 2960.48) was 2382.29, the “BDNF, mean at endpoint” value ([8]; endpoint 12 weeks, n = 26, baseline mean 16196.64) was 18910.46 and the “TGF-β1, mean at endpoint” value ([8]; endpoint 12 weeks, n = 26, baseline mean 30884.32) was 27653.85. The “Change in TGF-β1 over 12 weeks of treatment” value ([8]; within-group change, GEE, p 0.080) was −3586.37, the “Change in IL-10 over 12 weeks of treatment” value ([8]; within-group change, GEE, p 0.605) was −0.182 and the “Change in TNF-α over 12 weeks of treatment” value ([8]; within-group change, GEE, p 0.89) was 0.04.
